Consider 22 compounds from patent US8710233B2 (Gruenenthal GmbH, priority 2005, dated 2014).

Structures are written as SMILES. Read-outs that look alike come from different tables or passages of the source.

What all share (format): cell-based
For one assay, the target named is VR1/TRPV1 receptor (Homo sapiens, UniProt Q8NER1). Description: IC50 (human) after pH stimulus. Particulars: for IC50: table 4.
For a further assay, the target named is T1, vanilloid receptor (VR1) (Homo sapiens, UniProt Q8NER1).
T1 construct: expressed in transfected cells; host or cells: CHO K1 cells (ECACC), stably transfected
T1 sequence (Q8NER1 whole entry): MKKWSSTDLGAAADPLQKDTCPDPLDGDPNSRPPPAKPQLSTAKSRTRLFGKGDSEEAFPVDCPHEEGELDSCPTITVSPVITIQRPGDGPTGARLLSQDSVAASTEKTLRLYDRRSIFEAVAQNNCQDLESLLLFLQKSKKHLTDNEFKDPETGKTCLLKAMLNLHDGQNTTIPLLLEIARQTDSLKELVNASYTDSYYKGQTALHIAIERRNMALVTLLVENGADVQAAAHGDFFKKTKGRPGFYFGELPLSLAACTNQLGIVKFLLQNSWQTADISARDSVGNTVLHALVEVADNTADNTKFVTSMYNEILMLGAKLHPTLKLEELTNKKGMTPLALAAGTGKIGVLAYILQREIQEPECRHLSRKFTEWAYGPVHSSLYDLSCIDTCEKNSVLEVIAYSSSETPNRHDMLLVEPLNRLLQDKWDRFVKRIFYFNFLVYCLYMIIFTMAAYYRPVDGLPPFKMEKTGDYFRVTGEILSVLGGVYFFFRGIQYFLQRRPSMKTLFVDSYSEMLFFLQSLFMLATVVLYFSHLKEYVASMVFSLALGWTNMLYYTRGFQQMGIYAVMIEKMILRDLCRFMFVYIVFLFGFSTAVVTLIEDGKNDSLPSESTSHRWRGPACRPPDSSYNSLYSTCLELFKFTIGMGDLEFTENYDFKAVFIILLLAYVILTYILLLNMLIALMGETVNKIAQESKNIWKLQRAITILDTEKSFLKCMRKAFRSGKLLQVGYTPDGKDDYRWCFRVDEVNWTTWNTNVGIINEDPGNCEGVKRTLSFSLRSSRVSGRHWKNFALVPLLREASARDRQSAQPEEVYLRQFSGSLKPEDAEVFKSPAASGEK
Description: FLIPR Ca2+ influx assay on CHO K1 cells transfected with the VR1 gene (pharmacological method II). The following applies: for Ki: table 4, capsaicin, read-out: Ki (human) Cap.

The target in assay [1] is T2, vanilloid receptor 1 (VR1/TRPV1) of the rat species (Rattus norvegicus, UniProt O35433).
T2 construct: The spinal column is removed from decapitated rats; from tissue; host or cells: primary cells dissociated from rat dorsal root ganglia
T2 sequence (O35433 whole entry): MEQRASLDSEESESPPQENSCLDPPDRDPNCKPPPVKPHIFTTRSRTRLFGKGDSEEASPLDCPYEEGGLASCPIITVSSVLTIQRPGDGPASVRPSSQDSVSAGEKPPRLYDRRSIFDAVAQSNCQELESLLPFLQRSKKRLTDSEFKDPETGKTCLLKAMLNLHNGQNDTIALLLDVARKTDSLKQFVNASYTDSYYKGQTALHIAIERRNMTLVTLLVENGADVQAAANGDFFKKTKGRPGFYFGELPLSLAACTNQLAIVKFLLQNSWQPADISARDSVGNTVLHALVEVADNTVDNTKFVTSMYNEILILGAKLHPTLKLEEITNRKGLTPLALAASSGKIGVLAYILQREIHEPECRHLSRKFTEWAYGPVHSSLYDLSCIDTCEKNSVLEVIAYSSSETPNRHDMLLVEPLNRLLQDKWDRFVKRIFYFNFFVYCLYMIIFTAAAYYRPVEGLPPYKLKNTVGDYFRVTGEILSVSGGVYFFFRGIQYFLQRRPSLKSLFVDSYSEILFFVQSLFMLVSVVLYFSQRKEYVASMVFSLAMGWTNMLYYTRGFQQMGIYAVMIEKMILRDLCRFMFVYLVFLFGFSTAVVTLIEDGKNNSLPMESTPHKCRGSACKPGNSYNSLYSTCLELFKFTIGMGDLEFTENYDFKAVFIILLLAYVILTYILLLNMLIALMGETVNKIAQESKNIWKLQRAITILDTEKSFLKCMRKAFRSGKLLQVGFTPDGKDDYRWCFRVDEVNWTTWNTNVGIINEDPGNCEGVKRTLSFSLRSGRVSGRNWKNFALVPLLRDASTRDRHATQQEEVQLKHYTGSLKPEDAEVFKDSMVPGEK
Description: FLIPR Ca2+ influx assay on rat dorsal root ganglia cells (pharmacological method I). The following applies: for Ki: table 4, capsaicin. The method, boiled down: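 Primary rat dorsal root ganglion cells loaded with 2 μM Fluo-4, Ca2+ influx read on FLIPR as peak fluorescence. Triplicates, at least 3 independent experiments.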

Where [2] appears, read: read-out: inhibition in percent, IC50 (human) after pH stimulus.
Setting [3] is: @ 1 μM, ne = no effect, read-out: inhibition in percent, IC50 (human) after pH stimulus.

Sequence of VR1/TRPV1 receptor (Q8NER1 whole entry): as the sequence (Q8NER1 whole entry) above

On to `CC(C(=O)NCc1ccc(C(F)(F)F)nc1N1CCN(c2ncccc2C(F)(F)F)CC1)c1ccc(NS(C)(=O)=O)c(F)c1` (stereo not shown) [Example 213, 2-(3-fluoro-4-methylsulfonamido-phenyl)-N-{6-trifluoromethyl-2-[4-(3-trifluoromethyl-pyridin-2-yl)-piperazin-1-yl]-pyridin-3-ylmethyl}-propionamide], for which the “inhibition in percent, IC50 (human) after pH stimulus” value at VR1/TRPV1 receptor (@ 1 μM, ne = no effect) was found to be 37%. Further, the inhibition at 10 µM at VR1/TRPV1 receptor (setting [2]) was found to be 49%. The Ki at vanilloid receptor (VR1) amounted to 2.8 nM; in assay [1] (read-out: Ki (rat) Cap.), 2 nM.

`CC(C(=O)NCc1ccc(C(F)(F)F)nc1N1CCN(c2ccccn2)CC1)c1ccc(NS(C)(=O)=O)c(F)c1` (stereo not shown) [Example 214, 2-(3-fluoro-4-methylsulfonamido-phenyl)-N-[2-(4-pyridin-2-yl-piperazin-1-yl)-6-trifluoromethyl-pyridin-3-ylmethyl]-propionamide] yielded a 50% inhibitory concentration (IC50) at VR1/TRPV1 receptor of 108 nM. In addition, the Ki came out at 1.4 nM at vanilloid receptor (VR1) and 1.5 nM in assay [1] (read-out: Ki (rat) Cap.).

As for `CC(C(=O)NCc1ccc(C(F)(F)F)nc1)c1ccc(NS(C)(=O)=O)c(F)c1` (stereo not shown) [Example 215, 2-(3-fluoro-4-methylsulfonamido-phenyl)-N-(6-trifluoromethyl-pyridin-3-ylmethyl)-propionamide], the inhibition at 25 µM at VR1/TRPV1 receptor (@ 25 μM, read-out: inhibition in percent, IC50 (human) after pH stimulus) was determined as 15%. Moreover, the inhibition at 10 µM at vanilloid receptor (VR1) (CHO-K1, @ 10 μM, read-out: inhibition in percent, Ki (human) Cap.) came out at 37%; in assay [1] (@ 10 μM, read-out: inhibition in percent, Ki (rat) Cap.), 48%.

With `CC(C(=O)NCc1ccc(C(F)(F)F)cc1N1CCC(C)(C)CC1)c1ccc(NS(C)(=O)=O)c(F)c1` (stereo not shown) [Example 218, N-[2-(4,4-dimethyl-piperidin-1-yl)-4-trifluoromethyl-benzyl]-2-(3-fluoro-4-methylsulfonamido-phenyl)-propionamide], the half-inhibitory concentration (IC50) at VR1/TRPV1 receptor was 13.8 nM. The inhibition constant (Ki) at vanilloid receptor (VR1) worked out at 1.3 nM; in assay [1] (read-out: Ki (rat) Cap.) it was 0.4 nM.

The compound `Cc1ccc(N2CCN(c3nc(C(F)(F)F)ccc3CNC(=O)C(C)c3ccc(NS(C)(=O)=O)c(F)c3)CC2)cc1` (stereo not shown) [Example 219, 2-(3-fluoro-4-methylsulfonamido-phenyl)-N-[2-(4-p-tolyl-piperazin-1-yl)-6-trifluoromethyl-pyridin-3-ylmethyl]-propionamide] showed a 50% inhibitory concentration (IC50) against VR1/TRPV1 receptor of 38.3 nM. The Ki worked out at 3.3 nM on vanilloid receptor (VR1) and 2.4 nM in assay [1] (read-out: Ki (rat) Cap.).

On VR1/TRPV1 receptor, `Cc1cccc(N2CCN(c3nc(C(F)(F)F)ccc3CNC(=O)C(C)c3ccc(NS(C)(=O)=O)c(F)c3)CC2)c1` (stereo not shown) [Example 220, 2-(3-fluoro-4-methylsulfonamido-phenyl)-N-[2-(4-m-tolyl-piperazin-1-yl)-6-trifluoromethyl-pyridin-3-ylmethyl]-propionamide] returned a half-maximal inhibitory concentration (IC50) of 39.2 nM. Also, the Ki on vanilloid receptor (VR1) amounted to 3.4 nM; in assay [1] (read-out: Ki (rat) Cap.) it was 2.4 nM.

At VR1/TRPV1 receptor, `CC(C(=O)NCc1ccc(C(F)(F)F)nc1N1CCN(c2ccc(C(F)(F)F)cc2)CC1)c1ccc(NS(C)(=O)=O)c(F)c1` (stereo not shown) [Example 222, 2-(3-fluoro-4-methylsulfonamido-phenyl)-N-{6-trifluoromethyl-2-[4-(4-trifluoromethyl-phenyl)-piperazin-1-yl]-pyridin-3-ylmethyl}propionamide] yielded an IC50 of 39.2 nM. In addition, the Ki at vanilloid receptor (VR1) was 3.4 nM; in assay [1] (read-out: Ki (rat) Cap.), 2.4 nM.

On to `CC(C(=O)NCc1ccc(C(F)(F)F)nc1N1CCC(OC(=O)C(C)(C)C)CC1)c1ccc(NS(C)(=O)=O)c(F)c1` (stereo not shown) [Example 226, 2,2-dimethyl-propionic acid 3′-{[2-(3-fluoro-4-methylsulfonamido-phenyl)-propionylamino]-methyl}-6′-trifluoromethyl-3,4,5,6-tetrahydro-2H-[1,2′]bipyridinyl-4-yl ester], for which the 50% inhibitory concentration (IC50) against VR1/TRPV1 receptor turned out to be 45.2 nM. The inhibitory constant (Ki) on vanilloid receptor (VR1) was determined as 2 nM; in assay [1] (read-out: Ki (rat) Cap.) it was 1.5 nM.

Regarding `CC(C(=O)NCc1ccc(C(F)(F)F)nc1N1CCC(=O)CC1)c1ccc(NS(C)(=O)=O)c(F)c1` (stereo not shown) [Example 227], at VR1/TRPV1 receptor (setting [3]), the inhibition at 1 µM is 7%. The inhibition at 10 µM on VR1/TRPV1 receptor (setting [2]) stood at 51%. The Ki on vanilloid receptor (VR1) was determined as 91 nM; in assay [1] (read-out: Ki (rat) Cap.), 348 nM.

The compound `CCOC1CCN(c2nc(C(F)(F)F)ccc2CNC(=O)C(C)c2ccc(NS(C)(=O)=O)c(F)c2)CC1` (stereo not shown) [Example 228, N-(4-ethoxy-6′-trifluoromethyl-3,4,5,6-tetrahydro-2H-[1,2′]bipyridinyl-3′-ylmethyl)-2-(3-fluoro-4-methylsulfonamido-phenyl)-propionamide] yielded an IC50 against VR1/TRPV1 receptor of 612 nM. Moreover, the results for the Ki (at vanilloid receptor (VR1); in assay [1] (read-out: Ki (rat) Cap.)) were 1.3 nM and 2.5 nM, respectively.

`CCC1CCN(c2cc(C(F)(F)F)ccc2CNC(=O)C(C)c2ccc(NS(C)(=O)=O)c(F)c2)CC1` (stereo not shown) [Example 229, N-[2-(4-ethyl-piperidin-1-yl)-4-trifluoromethyl-benzyl]-2-(3-fluoro-4-methylsulfonamido-phenyl)-propionamide] came in with an IC50 on VR1/TRPV1 receptor of 17.7 nM. In addition, the inhibition constant (Ki) (on vanilloid receptor (VR1); in assay [1] (read-out: Ki (rat) Cap.)) was 0.7 nM throughout.

With `CC(C(=O)NCc1ccc(C(F)(F)F)cc1N1CCC(C(F)(F)F)CC1)c1ccc(NS(C)(=O)=O)c(F)c1` (stereo not shown) [Example 230, 2-(3-fluoro-4-methylsulfonamido-phenyl)-N-[4-trifluoromethyl-2-(4-trifluoromethyl-piperidin-1-yl)-benzyl]-propionamide], the IC50 against VR1/TRPV1 receptor was found to be 20.1 nM. Moreover, the Ki is 0.4 nM at vanilloid receptor (VR1) and 0.6 nM in assay [1] (read-out: Ki (rat) Cap.).

As for `CC(C(=O)NCc1ccc(C(F)(F)F)cc1N1CCC(Cc2ccccc2)CC1)c1ccc(NS(C)(=O)=O)c(F)c1` (stereo not shown) [Example 231, N-[2-(4-benzyl-piperidin-1-yl)-4-trifluoromethyl-benzyl]-2-(3-fluoro-4-methylsulfonamido-phenyl)-propionamide], inhibition against VR1/TRPV1 receptor was half-maximal at 37.6 nM (IC50). Further, the Ki on vanilloid receptor (VR1) amounted to 1.4 nM; in assay [1] (read-out: Ki (rat) Cap.), 0.8 nM.

Regarding `CC(C(=O)NCc1ccc(C(C)(C)C)nc1OC1CCCCC1)c1ccc(NS(C)(=O)=O)c(F)c1` (stereo not shown) [Example 233, N-(6-tert-butyl-2-cyclohexyloxy-pyridin-3-ylmethyl)-2-(3-fluoro-4-methylsulfonamido-phenyl)-propionamide], at VR1/TRPV1 receptor (setting [3]), the inhibition at 1 µM is 50%. Further, the inhibition at 10 µM at VR1/TRPV1 receptor (setting [2]) was 63%. For the same compound, the inhibition constant (Ki) on vanilloid receptor (VR1) turned out to be 2.5 nM; in assay [1] (read-out: Ki (rat) Cap.), 1.4 nM.

In the case of `CCCCOc1nc(C(C)(C)C)ccc1CNC(=O)C(C)c1ccc(NS(C)(=O)=O)c(F)c1` (stereo not shown) [Example 235, N-(2-butoxy-6-tert-butyl-pyridin-3-ylmethyl)-2-(3-fluoro-4-methylsulfonamido-phenyl)-propionamide], at VR1/TRPV1 receptor, half-maximal inhibition (IC50) required 55 nM. Moreover, the inhibition constant Ki at vanilloid receptor (VR1) is 0.9 nM; in assay [1] (read-out: Ki (rat) Cap.) it was 0.6 nM.

On to `CCCCCCOc1nc(C(C)(C)C)ccc1CNC(=O)C(C)c1ccc(NS(C)(=O)=O)c(F)c1` (stereo not shown) [Example 236, N-(6-tert-butyl-2-hexyloxy-pyridin-3-ylmethyl)-2-(3-fluoro-4-methylsulfonamido-phenyl)-propionamide], for which the inhibition at 1 µM on VR1/TRPV1 receptor (setting [3]) worked out at 76%. At VR1/TRPV1 receptor (setting [2]), the inhibition at 10 µM is 69%. The figures for the Ki (on vanilloid receptor (VR1); in assay [1] (read-out: Ki (rat) Cap.)) were 2.7 nM and 1.4 nM, respectively.

Take `CC(C(=O)NCc1ccc(C(C)(C)C)nc1OCc1ccccc1)c1ccc(NS(C)(=O)=O)c(F)c1` (stereo not shown) [Example 237, N-(2-benzyloxy-6-tert-butyl-pyridin-3-ylmethyl)-2-(3-fluoro-4-methylsulfonamido-phenyl)-propionamide]: the inhibition at 1 µM at VR1/TRPV1 receptor (setting [3]) was 70%. For the same compound, the inhibitory constant (Ki) was determined as 4.4 nM at vanilloid receptor (VR1) and 2 nM in assay [1] (read-out: Ki (rat) Cap.).

As to `CC(C(=O)NCc1ccc(C(F)(F)F)cc1OC1CCCCC1)c1ccc(NS(C)(=O)=O)c(F)c1` (stereo not shown) [Example 238, N-(2-cyclohexyloxy-4-trifluoromethyl-benzyl)-2-(3-fluoro-4-methylsulfonamido-phenyl)-propionamide], the inhibition at 0.1 µM at VR1/TRPV1 receptor (setting [2]) was found to be 39%. Besides, the inhibition at 1 µM on VR1/TRPV1 receptor (setting [3]) was 55%. Moreover, the Ki at vanilloid receptor (VR1) was 0.7 nM; in assay [1] (read-out: Ki (rat) Cap.) it was 0.6 nM.

Turning to `CC(C(=O)NCc1ccc(C(C)(C)C)nc1N1CCCC1)c1ccc(NS(C)(=O)=O)c(F)c1` (stereo not shown) [Example 240, N-(6-tert-butyl-2-pyrrolidin-1-yl-pyridin-3-ylmethyl)-2-(3-fluoro-4-methansulfonylamino-phenyl)-propionamide], on VR1/TRPV1 receptor (setting [2]), the inhibition at 0.1 µM is 12%. Moreover, on VR1/TRPV1 receptor (setting [3]), the inhibition at 1 µM was 43%. Moreover, the Ki worked out at 1.2 nM at vanilloid receptor (VR1) and 5.3 nM in assay [1] (read-out: Ki (rat) Cap.).

In the case of `CC1CCN(c2nc(C(C)(C)C)ccc2CNC(=O)C(C)c2ccc(NS(C)(=O)=O)c(F)c2)CC1` (stereo not shown) [Example 241, N-(6′-tert-butyl-4-methyl-3,4,5,6-tetrahydro-2H-[1,2′]bipyridinyl-3′-ylmethyl)-2-(3-fluoro-4-methylsulfonamido-phenyl)-propionamide], the inhibition at 0.1 µM at VR1/TRPV1 receptor (setting [2]) came out at 34%. Further, on VR1/TRPV1 receptor (setting [3]), the inhibition at 1 µM was 79%. For the same compound, the inhibition constant (Ki) on vanilloid receptor (VR1) stood at 1.9 nM; in assay [1] (read-out: Ki (rat) Cap.), 0.5 nM.

For `CCc1ccc(COc2nc(C(F)(F)F)ccc2CNC(=O)C(C)c2ccc(NS(C)(=O)=O)c(F)c2)cc1` (stereo not shown) [Example 242, N-[2-(4-ethyl-benzyloxy)-6-trifluoromethyl-pyridin-3-ylmethyl]-2-(3-fluoro-4-methylsulfonamido-phenyl)-propionamide], the midpoint of inhibition on VR1/TRPV1 receptor, the IC50, lay at 165 nM. Besides, the inhibition constant (Ki) on vanilloid receptor (VR1) came to 3.7 nM; in assay [1] (Ki (rat) Cap.), 1.2 nM.

In turn, `CCCCc1ccc(COc2nc(C(F)(F)F)ccc2CNC(=O)C(C)c2ccc(NS(C)(=O)=O)c(F)c2)cc1` (stereo not shown) [Example 243, N-[2-(4-butyl-benzyloxy)-6-trifluoromethyl-pyridin-3-ylmethyl]-2-(3-fluoro-4-methylsulfonamido-phenyl)-propionamide] came in with an IC50 against VR1/TRPV1 receptor of 337 nM. Also, the inhibition constant Ki at vanilloid receptor (VR1) stood at 16 nM; in assay [1] (read-out: Ki (rat) Cap.), 5.1 nM.

For orientation: inhibition means the drop in the measured response relative to a control, in per cent. The term Ki denotes the dissociation constant of the complex between target and ligand, obtained from inhibition or displacement. By IC50 is commonly meant the midpoint of a concentration-inhibition curve.
